Measured values: paper PMC7144120, “Psoralen Derivatives as Inhibitors of Mycobacterium tuberculosis Proteasome” (Molecules, 2020)

Columns and labels:
Mtb proteasome = target: T1, Mtb proteasome (Mycobacterium tuberculosis, UniProt P9WHT9); assay: biochemical; type: biochemical; conditions: for IC50: 50 µM Suc-LLVY-AMC, 30 min preincubation, 37 °C, triplicate, read-out: IC50 against the Mtb proteasome; for Hill Coefficient: from IC50 curve, Mtb proteasome
T1 construct: made in house

ß5i of IP = conditions: cited from earlier work; for RA at 10 µM against ß5i of IP: residual activity of β5i in the presence of 10 μM compound; for Ki: read-out: Ki against ß5i of IP; for IC50: read-out: IC50 against ß5i of IP

T1 sequence (P9WHT9 whole entry, looked up): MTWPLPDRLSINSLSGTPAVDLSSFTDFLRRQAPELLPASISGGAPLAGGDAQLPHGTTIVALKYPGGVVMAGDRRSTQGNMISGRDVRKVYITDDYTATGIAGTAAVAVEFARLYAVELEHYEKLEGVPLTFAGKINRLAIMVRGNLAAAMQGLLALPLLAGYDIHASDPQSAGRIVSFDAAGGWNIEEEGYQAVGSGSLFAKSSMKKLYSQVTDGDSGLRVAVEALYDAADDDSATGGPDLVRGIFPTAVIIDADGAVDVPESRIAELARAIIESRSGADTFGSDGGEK

Cc1coc2cc3oc(=O)c(CCC(=O)NCC#N)c(C)c3cc12 [Compound 47]
RA at 100 µM against Mtb (Mtb proteasome): 95%
RA at 10 µM against ß5i of IP (ß5i of IP): 105%

Cc1c(CCC(=O)N(C)CC#N)c(=O)oc2cc3occ(-c4ccccc4)c3cc12 [Compound 40]
RA at 100 µM against Mtb (Mtb proteasome): 100%
RA at 10 µM against ß5i of IP (ß5i of IP): 92%

Cc1cc(-c2coc3cc4oc(=O)c(CCC(=O)O)c(C)c4cc23)c(C)s1 [Compound 21]
RA at 100 µM against Mtb (Mtb proteasome): 99%
Ki (ß5i of IP): 52.3 ± 18 µM

Cc1c(CC(=O)N(C)CC#N)c(=O)oc2cc3occ(-c4ccccc4)c3cc12 [Compound 51]
RA at 100 µM against Mtb (Mtb proteasome): 93%
RA at 10 µM against ß5i of IP (ß5i of IP): 97%

Cc1c(CC(=O)N(C)CC#N)c(=O)oc2cc3occ(C4CCCCC4)c3cc12 [Compound 58]
RA at 100 µM against Mtb (Mtb proteasome): 100%
RA at 10 µM against ß5i of IP (ß5i of IP): 101%

Cc1c(CCC(=O)ON2C(=O)CCC2=O)c(=O)oc2cc3occ(-c4ccccc4)c3cc12 [Compound 66]
RA at 100 µM against Mtb (Mtb proteasome): 66%
IC50 (ß5i of IP): 0.009 ± 0.002 µM

Cc1c(CCC(=O)N(C)CC#N)c(=O)oc2cc3occ(C(C)(C)C)c3cc12 [Compound 7]
IC50 (Mtb proteasome): 8 ± 5 µM
Hill Coefficient (Mtb proteasome): 0.42
RA at 10 µM against ß5i of IP (ß5i of IP): 100%

Cc1c(CC(=O)NCC#N)c(=O)oc2cc3occ(-c4ccccc4)c3cc12 [Compound 59]
RA at 100 µM against Mtb (Mtb proteasome): 92%
RA at 10 µM against ß5i of IP (ß5i of IP): 101%

Cc1c(CCC(=O)ON2C(=O)CCC2=O)c(=O)oc2cc3occ(C4CCCCC4)c3cc12 [Compound 12]
IC50 (Mtb proteasome): 5 ± 2 µM
Hill Coefficient (Mtb proteasome): 1.05
IC50 (ß5i of IP): 1.8 µM

Cc1coc2cc3oc(=O)c(CC(=O)O)c(C)c3cc12 [Compound 29]
RA at 100 µM against Mtb (Mtb proteasome): 61%
RA at 10 µM against ß5i of IP (ß5i of IP): 88%

Cc1c(CC(=O)O)c(=O)oc2cc3occ(-c4ccccc4)c3cc12 [Compound 25]
RA at 100 µM against Mtb (Mtb proteasome): 96%
Ki (ß5i of IP): 2.4 ± 0.4 µM

Cc1c(CC(=O)ON2C(=O)CCC2=O)c(=O)oc2cc3occ(-c4ccc(Br)cc4)c3cc12 [Compound 74]
RA at 100 µM against Mtb (Mtb proteasome): 61%
RA at 10 µM against ß5i of IP (ß5i of IP): 101%

C=CC(=O)NCc1c(C)c2cc3c(-c4ccccc4)coc3cc2oc1=O [Compound 82]
RA at 100 µM against Mtb (Mtb proteasome): 68%
RA at 10 µM against ß5i of IP (ß5i of IP): 90%

Cc1c(CCC(=O)O)c(=O)oc2cc3occ(-c4ccc(Br)cc4)c3cc12 [Compound 1]
IC50 (Mtb proteasome): 39 ± 7 µM
Hill Coefficient (Mtb proteasome): 0.69
Ki (ß5i of IP): 137 µM

Cc1c(CC(=O)N(C)CC#N)c(=O)oc2cc3occ(-c4ccc(Br)cc4)c3cc12 [Compound 52]
RA at 100 µM against Mtb (Mtb proteasome): 70%
RA at 10 µM against ß5i of IP (ß5i of IP): 86%

Cc1c(CCc2nsc(=O)o2)c(=O)oc2cc3occ(-c4ccccc4)c3cc12 [Compound 90]
RA at 100 µM against Mtb (Mtb proteasome): 69%
IC50 (ß5i of IP): 0.2 ± 0.04 µM

COc1cccc(-c2coc3c(C)c4oc(=O)c(CCC(=O)O)c(C)c4cc23)c1 [Compound 36]
RA at 100 µM against Mtb (Mtb proteasome): 87%
RA at 10 µM against ß5i of IP (ß5i of IP): 72%

Cc1c(CCC(=O)NCC#N)c(=O)oc2cc3occ(-c4ccc(Br)cc4)c3cc12 [Compound 46]
RA at 100 µM against Mtb (Mtb proteasome): 82%
RA at 10 µM against ß5i of IP (ß5i of IP): 107%

Cc1cc(-c2coc3cc4oc(=O)c(CC(=O)N(C)CC#N)c(C)c4cc23)c(C)s1 [Compound 55]
RA at 100 µM against Mtb (Mtb proteasome): 88%
RA at 10 µM against ß5i of IP (ß5i of IP): 103%

Cc1c(CCC(=O)O)c(=O)oc2c(C)c3occ(-c4ccccc4)c3cc12 [Compound 35]
RA at 100 µM against Mtb (Mtb proteasome): 100%
Ki (ß5i of IP): 43.1 ± 15 µM

COc1ccc(-c2coc3cc4oc(=O)c(CCC(=O)O)c(C)c4cc23)cc1 [Compound 17]
RA at 100 µM against Mtb (Mtb proteasome): 100%
RA at 10 µM against ß5i of IP (ß5i of IP): 84%

Cc1c(N)c(=O)oc2cc3occ(-c4ccccc4)c3cc12 [Compound 84]
RA at 100 µM against Mtb (Mtb proteasome): 100%
RA at 10 µM against ß5i of IP (ß5i of IP): 88%

Cc1c(CN)c(=O)oc2cc3occ(-c4ccccc4)c3cc12 [Compound 80]
RA at 100 µM against Mtb (Mtb proteasome): 55%

Cc1coc2cc3oc(=O)c(CC(=O)NCC#N)c(C)c3cc12 [Compound 62]
RA at 100 µM against Mtb (Mtb proteasome): 60%

Cc1c(CCC(=O)O)c(=O)oc2c(C)c3occ(-c4ccc(C(=O)O)cc4)c3cc12 [Compound 39]
RA at 100 µM against Mtb (Mtb proteasome): 98%
